According to US20140341983A1, “SMART™ SOLID ORAL DOSAGE FORMS” (priority 2011, published 2014):
Read-outs that look alike come from different tables or passages of the source.

Tests used:
[1] = cited from earlier work
[2] = @ 25° C., experimental; cited from earlier work
[3] = Aim 1: breath kinetics and dose-response after sublingual solutions (SAW); format: in vivo, human
Protocol: Dose-response relationships were determined in four study participants following sublingual administration of solutions containing D-limonene and methyl salicylate. […] Five seconds after administration of the solution, the participant would blow a single five second breath into the SAW sensor. […] The participant kept his or her mouth closed when not providing a sample and refrained from breathing through the mouth or talking during the collection period. In addition, the more promising solutions (7, 12 and 16) were tested in triplicate to estimate reproducibility within individuals.

[4] = D-limonene recovery from placebo SL powder by LCMS (stability); format: physicochemical
Protocol: Three replicate 30 mg portions of this powder were removed immediately after preparation and extracted with acetonitrile to recover the D-limonene. The extracts were analyzed by liquid chromatography-mass spectrometry (LCMS). This was repeated with three more portions after four hours and again after eight hours (FIG. 26).

[5] = Breath 2-butanone after ingestion of food or 2-butanol taggant; conditions: foods: two servings; 2-butanol taggant: 40 mg ingested, n=7
Protocol: To assess the interference produced by food, 6 subjects rapidly consumed (<5 min) two servings (≈16 fl. Oz) of yogurt or 2 servings (≈60 g) of cheddar cheese and breath samples were collected for 60 min after ingestion.

[6] = cited from earlier work; remark: listed apart in the source
[7] = octanol-water coefficient; cited from earlier work
[8] = Oral vanillin detection by direct breath LCMS (OrbiTrap); format: in vivo, human; conditions: 30 μg vanillin in 10 μL neat ethanol on tongue
From the text: In the lower panel of FIG. 14, note how an internal standard (semi-volatile organic acid) stays constant for each of the six breaths.

[9] = dose that can be taken for remainder of life without regulatory concern

| Compound | Water Sol ([1]; @ 25° C.) | VP (vapor pressure) [2] | permissible daily exposure (PDE) ([6]; orally) [mg orally per day] | log P [7] | also measured |
| --- | --- | --- | --- | --- | --- |
| CC(C)[C@@H]1CC[C@@H](C)C[C@H]1O (racemic) [DL-menthol] | 456 @ 25 °C mg/L | 0.0637 @ 25 °C mmHg | – | – | – |
| C=C(C)[C@H]1CC=C(C)CC1 [D-limonene, 4-isopropenyl-1-methylcyclohexene] | – | – | – | – | breath concentration measured at 5 seconds lost by 50 seconds ([3]; human, in vivo): 78%; time course of flavorant concentration in exhaled breath ([3]; in vivo): decayed exponentially over time; D-limonene dose recovered from SL powder ([4]; at eight hours): 11%; D-limonene dose recovered from SL powder ([4]; at four hours): 22%; D-limonene dose recovered from SL powder ([4]; just after preparation): Approximately 65% |
| CCC(C)O (stereo not drawn) [Formulation 2-butanol, 2-butanol] | – | – | 300 | – | Maximum 2-butanone (Cmax) in breath [5]: ≈ 549 ppb; Tmax of 2-butanone in breath [5]: 6.7 ± 0.6 min; permissible daily exposure (PDE) [6, 9]: 300 mg/day |
| CCCC(C)=O [Formulation 2-pentanone, 2-pentanone] | – | – | 250 | – | permissible daily exposure (PDE) [6, 9]: 250 mg/day |
| C=C(C)[C@@H]1CC=C(C)C(=O)C1 [L-carvone] | 1,310 @ 25 °C mg/L | 0.103 @ 25 °C mmHg | – | 2.71 | – |
| CCO [ethanol, reference compound] | – | – | 166.7 | – | – |
| COC(=O)c1ccccc1N [methyl anthranilate] | 2,850 @ 25 °C mg/L | – | – | 1.88 | – |
| COC(=O)c1ccccc1O [methyl salicylate, methyl-2-hydroxybenzoate] | – | 0.0343 @ 25 °C mmHg | – | 2.55 | time course of flavorant concentration in exhaled breath ([3]; after a single SL administration): decayed exponentially over time; breath concentration measured at 5 seconds lost by 50 seconds ([3]; single SL administration, average): 50%; Water Sol ([1]; @ 30° C.): 700 @ 30 °C mg/L |
| CC(C)c1cccc(C(C)C)c1O [propofol, reference compound] | 124 @ 25 °C mg/L | 0.00305 @ 25 °C mmHg | – | – | – |
| COc1cc(C=O)ccc1O [vanillin, 4-hydroxy-3-methoxybenzaldehyde] | 11,000 @ 25 °C mg/L | 1.18E-04 @ 25 °C mmHg | – | – | persistence in human breath [8]: 2 min; persistence in human breath ([8]; listed as Vanillin): ≈ 2 min |
